What was measured:
brain Aβ1-42 = tested on: brain Aβ1-42; design: method as in PMID 12897211, PMID 17650315; details: rodents; cited from earlier work
[1] = tested on: Aβ1-42 in cerebrospinal fluid; design: method as in PMID 18090435; details: clinical trials, even at high doses; cited from earlier work
rat brain Aβ = assay: Rat brain Aβ peptides after oral dose (4-plex immunoassay and Aβ1-x); type: in vivo; details: 10 mg/kg, 5 hours
Description: (§1) IC50 determinations for Aβ1-42 and Aβ1-40 in H4-APPsw cultures in 384-well format were determined using homogeneous time-resolved fluorescence immunoassays as previously described. The principle of these assays is illustrated in Figures 1(c) and 1(d). In other experiments using H4-APPsw cultures, Aβ was quantified by ELISA; for Aβ1-42 the combination of monoclonal antibodies was 26D6 and 565-HRP; for Aβ1-40 it was TSD and 26D6-HRP, and for Aβ1-x it was 4G8 and 26D6-HRP. In some experiments a novel 4-plex Aβ electrochemiluminescence immunoassay was used (Mesoscale Discovery catalog number N45ZA-1). Briefly, the 4-plex was carried out in 96-well format, with 4 separate spots of capture antibodies in each well. The 96-well plates were prepared by the manufacturer, with spots of monoclonal antibodies for Aβ1-42, Aβ1-40, and Aβ1-38, and an additional fourth spot of streptavidin in each well. Plates were initially incubated with blocking buffer (5% BSA in phosphate buffered saline, 200 μL per well) for 2 hours at ambient temperature and then with D2A6H-biotin conjugate (50 ng/mL in 1% BSA, phosphate buffered saline, 25 μL per well) for 1 hour. Plates were then rinsed with phosphate buffered saline before addition of experimental samples for determination of Aβ1-42, Aβ1-40, Aβ1-38, and Aβ1-37 levels, following the manufacturer's instructions as for the Aβ 3-plex kit (catalog number K15148E-1). Rat brain extracts for use in the 4-plex assay were made in 0.2% diethylamine, as previously described. For detection of rat Aβ peptides in the 4-plex (Figure 5), 252Q6-sulfo-tag conjugate was used, and for detection of human Aβ peptides from cell cultures 6E10-sulfo-tag conjugate was used. For Aβ in transiently transfected PS1/PS2 dKO fibroblasts, Aβ1-42 was quantified using an ELISA kit (WACO), and Aβ1-40 was quantified by ELISA as described above for H4-APPsw cultures. For triple transgenic mice (3xTg; [63]), human transgenic Aβ1-42 was assayed in brain homogenates using an ELISA kit (WACO). For the rat and mouse experiments illustrated in Figures 7 and 8, brain samples were prepared by solid phase extraction, and endogenous rat brain Aβ1-42 and Aβ1-40 were quantified by ELISA as previously described for wild type mice. For brain extracts made using solid phase extraction, calibration of Aβ was relative, based on the approximately linear response of the assay in the range tested. For brain extracts made in 0.2% diethylamine, Aβ1-42, Aβ1-40, Aβ1-38, and Aβ1-37 concentrations in brain and cell culture samples were determined by fitting the results of immunoassays against calibration curves derived from a range of dilutions of the corresponding synthetic peptides on each assay plate using a quadratic curve fit (Graphpad Prizm 5.0). Aβ1-x was calibrated in the same way against synthetic Aβ1-40 peptide. Results were expressed in units of pM, corrected for sample dilution.
Rats were given oral doses of BMS-869780, and levels of brain Aβ, βCTF, and αCTF were determined 24 hours later. For comparison, BMS-698861 was dosed in a separate experiment and samples were taken 5 hours later. […] (c) Rat brain βCTF was detected by western blotting of immunoprecipitates from samples of the same rat brains used for Aβ determinations. […] (e) and (f) quantification of western blots shown in (c) and (d), respectively, expressed relative to percent of average level of CTF in vehicle-treated rats. […]

[2] = tested on: rat brain APP-CTFβ and APP-CTFα; assay: Immunoprecipitation and western blot of APP-CTFβ and APP-CTFα from rat brain; type: in vivo; details: 10 mg/kg, 5 hours
Description: Rats were given oral doses of BMS-869780, and levels of brain Aβ, βCTF, and αCTF were determined 24 hours later. For comparison, BMS-698861 was dosed in a separate experiment and samples were taken 5 hours later. (a) Brain levels of Aβ1-42 (red), Aβ1-40 (green), Aβ1-38 (blue), and Aβ1-37 (purple) are shown as bars stacked upon one another. The total height of each bar therefore represents the sum of the four peptides. (b) Aβ1-42 (red—left Y axis) and Aβ1-x (grey—right Y axis). The same results for Aβ1-42 are plotted in both (a) and (b). (c) Rat brain βCTF was detected by western blotting of immunoprecipitates from samples of the same rat brains used for Aβ determinations. V, vehicle groups; results from rats dosed with 1.9, 22, 100, and 235 mg/kg of BMS-869780 and 10 mg/kg BMS-698861 (GSI) are indicated. (d) Western blots of immunoprecipitated αCTF from the same rat brain samples. (e) and (f) quantification of western blots shown in (c) and (d), respectively, expressed relative to percent of average level of CTF in vehicle-treated rats. Actual doses of BMS-869780 were determined by analysis of concentrations in left-over dosing solutions. […]

[3] = tested on: brain Aβ1-42, brain Aβ1-40, plasma Aβ1-40; assay: Rat intraperitoneal dose response, brain and plasma Aβ 5 hours after dosing; type: in vivo; details: 30 mg/kg, 5 hours
Description: as §1
Figure 7 BMS-869780 dose response and evaluation of residual Aβ levels in rat brain. (a) Groups of rats received intraperitoneal (IP) injections of vehicle or BMS-869780 at doses of 100, 30, 10, 3, 1, and 0.3 mg/kg. Additional rats were dosed with GSI BMS-698861 at 30 mg/kg as a positive control for Aβ-lowering. Group sizes were seven rats for each dose of BMS-869780 and 14 rats for vehicle and GSI dose groups. Brain and plasma were harvested 5 hours after dosing. Brain Aβ1-42 (green), brain Aβ1-40 (blue), brain Aβ1-x (black), and plasma Aβ1-40 (red) were determined. Values are expressed as % relative to vehicle group mean. Whiskers represent standard error. ⊗Aβ1-x was not determined in the groups dosed at 3, 1, and 0.3 mg/kg. (b) Brain Aβ1-40 was plotted against brain Aβ1-42 for each rat dosed with BMS-869780 (black ▼) and for each rat dosed with vehicle (grey ●). Values are expressed as % relative to vehicle group mean. Whiskers represent standard error. […]

Notch/Aβ1-40 = tested on: Notch/Aβ1-40; design: method as in PMID 24900185; details: cited from earlier work

CC(C(=O)O)c1ccc(-c2ccccc2)c(F)c1 (stereo not drawn) [flurbiprofen]
effect on brain Aβ1-42 (brain Aβ1-42): lower brain Aβ1-42 in rodents | effect on Aβ1-42 in cerebrospinal fluid [1]: no effect on Aβ1-42 in cerebrospinal fluid

NC(=O)[C@@H](CC1CC1)N(Cc1ccc(-c2ncon2)cc1F)S(=O)(=O)c1ccc(Cl)cc1 [BMS-698861, reference compound]
rat brain Aβ1-40, Aβ1-42, Aβ1-38, Aβ1-37 and Aβ1-x (rat brain Aβ): decreased levels of all the peptides | rat brain APP-CTFβ and APP-CTFα levels [2]: increased several-fold | Aβ lowering in all Aβ assays including Aβ1-x [3]: robust lowering in all Aβ assays

NC(=O)[C@@H](CCC(F)(F)F)N(Cc1ccc(-c2ncon2)cc1F)S(=O)(=O)c1ccc(Cl)cc1 [avagacestat]
Notch/Aβ1-40 IC50 ratio (Notch/Aβ1-40): 193

Reference: PMC4109680, “Identification and Preclinical Pharmacology of the γ-Secretase Modulator BMS-869780” (International Journal of Alzheimer's Disease, 2014)
